Measured values: ChEMBL document CHEMBL3885861, “Open TG-GATES”

Species: Rattus norvegicus
Experiment: Open TG-GATES - Regimen: Daily Repeat
Type: toxicity, organism-based, Sprague-Dawley
Set-up: regimen Daily Repeat, gender Male, age 6 weeks
Details: in vivo, po, 1000 mg/kg, route gavage, dose level High; for APTT / Bas / Eos / Fbg / Hb / Ht / Lym / MCHC / MCV / Mono / Neu / PT / Plat / RBC / Ret / WBC: tissue Blood; for KIDNEY_L / KIDNEY_R / KIDNEY_TOTAL: tissue Kidney; for LIVER: tissue Liver; for ALP / ALT / AST / BUN / CRE / Ca / Cl / DBIL / GLC / IP / K / LDH / Na / PL / RALB / TBIL / TG / TP / gamma-GTP: tissue Plasma

SMILES: CN(C)C(=N)N=C(N)N [METFORMIN]
- TERMINAL_BW (72 h, time 3 day): 213.8 g
- APTT (72 h, time 3 day): 17.6 s
- Bas (72 h, time 3 day): 0%
- Eos (72 h, time 3 day): 1%
- Fbg (72 h, time 3 day): 223.8 mg/dL
- Hb (72 h, time 3 day): 13.4 g/dL
- Ht (72 h, time 3 day): 39.4%
- Lym (72 h, time 3 day): 72.8%
- MCHC (72 h, time 3 day): 34.1%
- MCV (72 h, time 3 day): 63.1 fL
- Mono (72 h, time 3 day): 4%
- Neu (72 h, time 3 day): 22%
- PT (72 h, time 3 day): 12.4 s
- Plat (72 h, time 3 day): 121.1 x10_4/uL
- RBC (72 h, time 3 day): 624.8 x10_4/ul
- Ret (72 h, time 3 day): 5.5%
- WBC (72 h, time 3 day): 107 x10_2/uL
- KIDNEY_L (72 h, time 3 day): 0.9 g
- KIDNEY_R (72 h, time 3 day): 0.9 g
- KIDNEY_TOTAL (72 h, time 3 day): 1.8 g
- LIVER (72 h, time 3 day): 11.6 g
- ALP (72 h, time 3 day): 1276.4 IU/L
- ALT (72 h, time 3 day): 37.4 IU/L
- AST (72 h, time 3 day): 74 IU/L
- BUN (72 h, time 3 day): 16.6 mg/dL
- CRE (72 h, time 3 day): 0.2 mg/dL
- Ca (72 h, time 3 day): 11.1 mg/dL
- Cl (72 h, time 3 day): 104 meq/L
- DBIL (72 h, time 3 day): 0.012 mg/dL
- GLC (72 h, time 3 day): 180.2 mg/dL
- IP (72 h, time 3 day): 8.7 mg/dL
- K (72 h, time 3 day): 4.1 meq/L
- LDH (72 h, time 3 day): 63.4 IU/L
- Na (72 h, time 3 day): 140.2 meq/L
- PL (72 h, time 3 day): 137.8 mg/dL
- RALB (72 h, time 3 day): 2.5 g/dL
- TBIL (72 h, time 3 day): 0.032 mg/dL
- TG (72 h, time 3 day): 95.8 mg/dL
- TP (72 h, time 3 day): 5.4 g/dL
- gamma-GTP (72 h, time 3 day): 1.2 IU/L
- TERMINAL_BW ([…], time 7 day): 243 g
- TERMINAL_BW ([…], time 14 day): 288.9 g
- TERMINAL_BW ([…], time 28 day): 357 g
- APTT ([…], time 7 day): 15.3 s
- Bas ([…], time 7 day): 0.2%
- Eos ([…], time 7 day): 0.6%
- Fbg ([…], time 7 day): 254.8 mg/dL
- Hb ([…], time 7 day): 13.8 g/dL
- Ht ([…], time 7 day): 41%
- Lym ([…], time 7 day): 80.4%
- MCHC ([…], time 7 day): 33.7%
- MCV ([…], time 7 day): 61.8 fL
- Mono ([…], time 7 day): 3.2%
- Neu ([…], time 7 day): 15.2%
- PT ([…], time 7 day): 12.1 s
- Plat ([…], time 7 day): 116.4 x10_4/uL
- RBC ([…], time 7 day): 664 x10_4/ul
- Ret ([…], time 7 day): 5.5%
- WBC ([…], time 7 day): 101.5 x10_2/uL
- APTT ([…], time 14 day): 17 s
- Bas ([…], time 14 day): 0%
- Eos ([…], time 14 day): 0.8%
- Fbg ([…], time 14 day): 252.2 mg/dL
- Hb ([…], time 14 day): 14.4 g/dL
- Ht ([…], time 14 day): 41.7%
- Lym ([…], time 14 day): 75.4%
- MCHC ([…], time 14 day): 34.5%
- MCV ([…], time 14 day): 59.5 fL
- Mono ([…], time 14 day): 3.4%
- Neu ([…], time 14 day): 19.6%
- PT ([…], time 14 day): 12.2 s
- Plat ([…], time 14 day): 124 x10_4/uL
- RBC ([…], time 14 day): 702 x10_4/ul
- Ret ([…], time 14 day): 4.4%
- WBC ([…], time 14 day): 121.9 x10_2/uL
- APTT ([…], time 28 day): 17.8 s
- Bas ([…], time 28 day): 0%
- Eos ([…], time 28 day): 1.2%
- Fbg ([…], time 28 day): 258.6 mg/dL
- Hb ([…], time 28 day): 15 g/dL
- Ht ([…], time 28 day): 43.7%
- Lym ([…], time 28 day): 74.6%
- MCHC ([…], time 28 day): 34.3%
- MCV ([…], time 28 day): 57.7 fL
- Mono ([…], time 28 day): 3.2%
- Neu ([…], time 28 day): 20.6%
- PT ([…], time 28 day): 12 s
- Plat ([…], time 28 day): 105.5 x10_4/uL
- RBC ([…], time 28 day): 757.4 x10_4/ul
- Ret ([…], time 28 day): 2.6%
- WBC ([…], time 28 day): 108.4 x10_2/uL
- KIDNEY_L ([…], time 7 day): 1.1 g
- KIDNEY_R ([…], time 7 day): 1 g
- KIDNEY_TOTAL ([…], time 7 day): 2.1 g
- KIDNEY_L ([…], time 14 day): 1.2 g
- KIDNEY_R ([…], time 14 day): 1.1 g
- KIDNEY_TOTAL ([…], time 14 day): 2.3 g
- KIDNEY_L ([…], time 28 day): 1.4 g
- KIDNEY_R ([…], time 28 day): 1.4 g
- KIDNEY_TOTAL ([…], time 28 day): 2.8 g
- LIVER ([…], time 7 day): 12.1 g
- LIVER ([…], time 14 day): 14.4 g
- LIVER ([…], time 28 day): 16.5 g
- ALP ([…], time 7 day): 1316.4 IU/L
- ALT ([…], time 7 day): 44.4 IU/L
- AST ([…], time 7 day): 82.2 IU/L
- BUN ([…], time 7 day): 15 mg/dL
- CRE ([…], time 7 day): 0.2 mg/dL
- Ca ([…], time 7 day): 10.9 mg/dL
- Cl ([…], time 7 day): 104.2 meq/L
- DBIL ([…], time 7 day): 0.012 mg/dL
- GLC ([…], time 7 day): 193.2 mg/dL
- IP ([…], time 7 day): 8.4 mg/dL
- K ([…], time 7 day): 4.4 meq/L
- LDH ([…], time 7 day): 57.4 IU/L
- Na ([…], time 7 day): 140.8 meq/L
- PL ([…], time 7 day): 141.6 mg/dL
- RALB ([…], time 7 day): 2.6 g/dL
- TBIL ([…], time 7 day): 0.024 mg/dL
- TG ([…], time 7 day): 92.2 mg/dL
- TP ([…], time 7 day): 5.5 g/dL
- gamma-GTP ([…], time 7 day): 1 IU/L
- ALP ([…], time 14 day): 1249.8 IU/L
- ALT ([…], time 14 day): 39 IU/L
- AST ([…], time 14 day): 75 IU/L
- BUN ([…], time 14 day): 17.6 mg/dL
- CRE ([…], time 14 day): 0.2 mg/dL
- Ca ([…], time 14 day): 11 mg/dL
- Cl ([…], time 14 day): 103.6 meq/L
- DBIL ([…], time 14 day): 0.008 mg/dL
- GLC ([…], time 14 day): 188.6 mg/dL
- IP ([…], time 14 day): 6.9 mg/dL
- K ([…], time 14 day): 4.1 meq/L
- LDH ([…], time 14 day): 61.2 IU/L
- Na ([…], time 14 day): 141.4 meq/L
- PL ([…], time 14 day): 164 mg/dL
- RALB ([…], time 14 day): 2.8 g/dL
- TBIL ([…], time 14 day): 0.026 mg/dL
- TG ([…], time 14 day): 148.6 mg/dL
- TP ([…], time 14 day): 6 g/dL
- gamma-GTP ([…], time 14 day): 1.2 IU/L
- ALP ([…], time 28 day): 1090.4 IU/L
- ALT ([…], time 28 day): 41.6 IU/L
- AST ([…], time 28 day): 71.4 IU/L
- BUN ([…], time 28 day): 17.4 mg/dL
- CRE ([…], time 28 day): 0.2 mg/dL
- Ca ([…], time 28 day): 11.1 mg/dL
- Cl ([…], time 28 day): 104 meq/L
- DBIL ([…], time 28 day): 0.014 mg/dL
- GLC ([…], time 28 day): 194.2 mg/dL
- IP ([…], time 28 day): 6.7 mg/dL
- K ([…], time 28 day): 3.9 meq/L
- LDH ([…], time 28 day): 50.2 IU/L
- Na ([…], time 28 day): 145.2 meq/L
- PL ([…], time 28 day): 152.6 mg/dL
- RALB ([…], time 28 day): 2.7 g/dL
- TBIL ([…], time 28 day): 0.034 mg/dL
- TG ([…], time 28 day): 148 mg/dL
- TP ([…], time 28 day): 6 g/dL
- gamma-GTP ([…], time 28 day): 1 IU/L
